Test results taken from US11236129B2, “IL-17A binding peptides and medical uses thereof” (Dompe' Farmaceutici S.P.A., priority 2018, dated 2022).
Residues, ends and D or L forms follow the SMILES beside them.

These compounds were tested against IL-17RA/IL17RC dimerization induced by IL-17A (Homo sapiens, UniProt Q16552) (assay: IL-17RA/IL17RC dimerization assay in response to IL-17A (PathHunter Cytokine Receptor Assay)). Details: IL-17A at EC80; read-out: IC50 in IL-17RA/IL7RC dimerization assay.
Format: cell-based
Procedure, shortened: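 Receptor dimerization was read as chemiluminescence from complemented β-galactosidase after IL-17A at EC80 concentration for 6–16 h at 37 °C. Peptides were added 60 min before agonist, at 37 °C or room temperature, with 1% vehicle. Percent inhibition used the EC80-stimulated and vehicle wells as references.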

Chain of IL-17RA/IL17RC dimerization induced by IL-17A (Q16552 24-155): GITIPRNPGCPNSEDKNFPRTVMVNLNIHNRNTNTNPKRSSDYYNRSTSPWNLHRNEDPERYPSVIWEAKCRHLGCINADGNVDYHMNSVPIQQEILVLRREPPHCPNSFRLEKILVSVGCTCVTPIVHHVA

IC50 [µM]	Structure (SMILES)
< 10	CC[C@H](C)[C@H](NC(C)=O)C(=O)N[C@@H](Cc1c[nH]cn1)C(=O)N[C@H](C(=O)N[C@H](C(=O)N[C@H](C(=O)N1CCC[C@H]1C(=O)N[C@@H](C)C(=O)N[C@@H](CC(=O)O)C(=O)N[C@@H](CC(C)C)C(=O)N[C@@H](Cc1ccccc1)C(=O)N[C@@H](CC(=O)O)C(=O)N[C@@H](Cc1c[nH]c2ccccc12)C(=O)N[C@H](C(=O)N[C@@H](CC(N)=O)C(=O)N[C@@H](CCCCN)C(N)=O)[C@@H](C)CC)[C@@H](C)CC)[C@@H](C)O)C(C)C [SEQ ID NO: 207] (Ac-IHVTIPADLFDWINK-NH2)
< 10	CC(=O)N[C@H](C(=O)N[C@@H](Cc1c[nH]cn1)C(=O)N[C@H](C(=O)N[C@H](C(=O)N[C@H](C(=O)N1CCC[C@H]1C(=O)N[C@@H](CCC(N)=O)C(=O)N[C@@H](CCC(=O)O)C(=O)N[C@@H](CC(C)C)C(=O)N[C@@H](Cc1ccccc1)C(=O)N[C@@H](CCC(=O)O)C(=O)N[C@@H](Cc1c[nH]c2ccccc12)C(=O)N[C@H](C(=O)N[C@@H](CCCNC(=N)N)C(=O)N[C@@H](CCCNC(=N)N)C(N)=O)C(C)C)C(C)C)[C@@H](C)O)C(C)C)C(C)C [SEQ ID NO: 225] (Ac-VHVTVPQELFEWVRR-NH2)
< 10	CC[C@H](C)[C@H](NC(C)=O)C(=O)N[C@@H](Cc1c[nH]cn1)C(=O)N[C@H](C(=O)N[C@H](C(=O)N[C@H](C(=O)N[C@H](C(=O)N[C@@H](C)C(=O)N[C@@H](CC(=O)O)C(=O)N[C@@H](CC(C)C)C(=O)N[C@@H](Cc1c[nH]c2ccccc12)C(=O)N[C@@H](CC(=O)O)C(=O)N[C@@H](Cc1c[nH]c2ccccc12)C(=O)N[C@H](C(=O)N[C@@H](CC(N)=O)C(=O)N[C@@H](CCCCN)C(N)=O)[C@@H](C)CC)C(C)C)[C@@H](C)CC)[C@@H](C)O)C(C)C [SEQ ID NO: 189] (Ac-IHVTIVADLWDWINK-NH2)
< 10	CC[C@H](C)[C@H](NC(=O)[C@H](CCC(=O)O)NC(=O)[C@H](CCC(N)=O)NC(=O)[C@@H]1CCCN1C(=O)[C@@H](NC(=O)[C@H](CO)NC(=O)[C@H](Cc1ccccc1)NC(=O)[C@H](CCCNC(=N)N)NC(=O)[C@@H](NC(C)=O)C(C)C)C(C)C)C(=O)N[C@@H](Cc1ccc(O)cc1)C(=O)N[C@@H](CCC(=O)O)C(=O)N[C@@H](Cc1c[nH]c2ccccc12)C(=O)N[C@H](C(=O)N[C@@H](CCCNC(=N)N)C(=O)N[C@@H](CCCNC(=N)N)C(N)=O)C(C)C [SEQ ID NO: 251] (Ac-VRFSVPQEIYEWVRR-NH2)
< 10	CC[C@H](C)[C@H](NC(C)=O)C(=O)N[C@@H](Cc1c[nH]cn1)C(=O)N[C@H](C(=O)N[C@H](C(=O)N[C@H](C(=O)N1CCC[C@H]1C(=O)N[C@@H](CC(C)C)C(=O)N[C@@H](CC(=O)O)C(=O)N[C@@H](CC(C)C)C(=O)N[C@@H](Cc1c[nH]c2ccccc12)C(=O)N[C@@H](CC(=O)O)C(=O)N[C@@H](Cc1c[nH]c2ccccc12)C(=O)N[C@H](C(=O)N[C@@H](CC(N)=O)C(=O)N[C@@H](CCCCN)C(N)=O)[C@@H](C)CC)[C@@H](C)CC)[C@@H](C)O)C(C)C [SEQ ID NO: 193] (Ac-IHVTIPLDLWDWINK-NH2)
< 10	CC[C@H](C)[C@H](NC(C)=O)C(=O)N[C@@H](Cc1c[nH]cn1)C(=O)N[C@H](C(=O)N[C@H](C(=O)N[C@H](C(=O)N1CCC[C@H]1C(=O)N[C@H](C(=O)N[C@@H](CC(=O)O)C(=O)N[C@@H](CC(C)C)C(=O)N[C@@H](Cc1c[nH]c2ccccc12)C(=O)N[C@@H](CC(=O)O)C(=O)N[C@@H](Cc1c[nH]c2ccccc12)C(=O)N[C@H](C(=O)N[C@@H](CC(N)=O)C(=O)N[C@@H](CCCCN)C(N)=O)[C@@H](C)CC)[C@@H](C)CC)[C@@H](C)CC)[C@@H](C)O)C(C)C [SEQ ID NO: 196] (Ac-IHVTIPIDLWDWINK-NH2)
< 10	CC(=O)N[C@H](C(=O)N[C@@H](Cc1c[nH]cn1)C(=O)N[C@H](C(=O)N[C@@H](CO)C(=O)N[C@H](C(=O)N1CCC[C@H]1C(=O)N[C@@H](CCC(N)=O)C(=O)N[C@@H](CCC(=O)O)C(=O)N[C@@H](CC(C)C)C(=O)N[C@@H](Cc1ccc(O)cc1)C(=O)N[C@@H](CCC(=O)O)C(=O)N[C@@H](Cc1c[nH]c2ccccc12)C(=O)N[C@H](C(=O)N[C@@H](CCCNC(=N)N)C(=O)N[C@@H](CCCNC(=N)N)C(N)=O)C(C)C)C(C)C)C(C)C)C(C)C [SEQ ID NO: 232] (Ac-VHVSVPQELYEWVRR-NH2)
< 10	CC[C@H](C)[C@H](NC(C)=O)C(=O)N[C@@H](Cc1c[nH]cn1)C(=O)N[C@H](C(=O)N[C@H](C(=O)N[C@H](C(=O)N1CCC[C@H]1C(=O)N[C@@H](C)C(=O)N[C@@H](CC(=O)O)C(=O)N[C@@H](CC(C)C)C(=O)N[C@@H](Cc1c[nH]c2ccccc12)C(=O)N[C@@H](CC(=O)O)C(=O)N[C@@H](Cc1c[nH]c2ccccc12)C(=O)N[C@H](C(=O)N[C@@H](CC(=O)O)C(=O)N[C@@H](CCCCN)C(N)=O)[C@@H](C)CC)[C@@H](C)CC)[C@@H](C)O)C(C)C [SEQ ID NO: 221] (Ac-IHVTIPADLWDWIDK-NH2)
< 10	CC[C@H](C)[C@H](NC(C)=O)C(=O)N[C@@H](Cc1c[nH]cn1)C(=O)N[C@H](C(=O)N[C@H](C(=O)N[C@H](C(=O)N1CCC[C@H]1C(=O)N[C@H](C(=O)N[C@@H](CC(=O)O)C(=O)N[C@@H](CC(C)C)C(=O)N[C@@H](Cc1c[nH]c2ccccc12)C(=O)N[C@@H](CC(=O)O)C(=O)N[C@@H](Cc1c[nH]c2ccccc12)C(=O)N[C@H](C(=O)N[C@@H](CC(N)=O)C(=O)N[C@@H](CCCCN)C(N)=O)[C@@H](C)CC)C(C)C)[C@@H](C)CC)[C@@H](C)O)C(C)C [SEQ ID NO: 195] (Ac-IHVTIPVDLWDWINK-NH2)

Further lines, the compound ahead of its results:

Structure (SMILES)	IC50 [µM]
CC[C@H](C)[C@H](NC(=O)[C@H](Cc1c[nH]c2ccccc12)NC(=O)[C@H](CC(=O)O)NC(=O)[C@H](Cc1c[nH]c2ccccc12)NC(=O)[C@H](CC(C)C)NC(=O)[C@H](CC(=O)O)NC(=O)[C@H](C)NC(=O)[C@@H]1CCCN1C(=O)[C@@H](NC(=O)[C@@H](NC(=O)[C@@H](NC(=O)[C@H](Cc1c[nH]cn1)NC(=O)CNC(C)=O)C(C)C)[C@@H](C)O)[C@@H](C)CC)C(=O)N[C@@H](CC(N)=O)C(=O)N[C@@H](CCCCN)C(N)=O [SEQ ID NO: 159] (Ac-GHVTIPADLWDWINK-NH2)	< 10
CC(=O)N[C@H](C(=O)N[C@@H](Cc1c[nH]cn1)C(=O)N[C@@H](Cc1ccccc1)C(=O)N[C@@H](CCC(N)=O)C(=O)N[C@@H](Cc1ccccc1)C(=O)N1CCC[C@H]1C(=O)N[C@@H](C)C(=O)N[C@@H](CC(=O)O)C(=O)N[C@@H](CC(C)C)C(=O)N[C@@H](Cc1c[nH]c2ccccc12)C(=O)N[C@@H](CCC(=O)O)C(=O)N[C@@H](Cc1ccccc1)C(=O)N[C@H](C(=O)N[C@@H](CCCNC(=N)N)C(=O)N[C@@H](CCCNC(=N)N)C(N)=O)C(C)C)C(C)C [SEQ ID NO: 134] (Ac-VHFQFPADLWEFVRR-NH2)	< 0.5
CC(=O)N[C@H](C(=O)N[C@@H](CCCNC(=N)N)C(=O)N[C@@H](Cc1ccccc1)C(=O)N[C@@H](CCC(N)=O)C(=O)N[C@@H](Cc1ccccc1)C(=O)NCC(=O)N[C@@H](CCC(N)=O)C(=O)N[C@@H](CCC(=O)O)C(=O)N[C@@H](Cc1c[nH]c2ccccc12)C(=O)N[C@@H](Cc1ccc(O)cc1)C(=O)N[C@@H](CC(N)=O)C(=O)N[C@@H](Cc1ccccc1)C(=O)N[C@@H](Cc1ccccc1)C(=O)N[C@@H](CCCNC(=N)N)C(=O)N[C@@H](CCCNC(=N)N)C(N)=O)C(C)C [SEQ ID NO: 155] (Ac-VRFQFGQEWYNFFRR-NH2)	< 0.5
CC[C@H](C)[C@H](NC(C)=O)C(=O)N[C@@H](Cc1c[nH]cn1)C(=O)N1CCC[C@H]1C(=O)N[C@H](C(=O)N[C@H](C(=O)N1CCC[C@H]1C(=O)N[C@@H](C)C(=O)N[C@@H](CC(=O)O)C(=O)N[C@@H](CC(C)C)C(=O)N[C@@H](Cc1c[nH]c2ccccc12)C(=O)N[C@@H](CC(=O)O)C(=O)N[C@@H](Cc1c[nH]c2ccccc12)C(=O)N[C@H](C(=O)N[C@@H](CC(N)=O)C(=O)N[C@@H](CCCCN)C(N)=O)[C@@H](C)CC)[C@@H](C)CC)[C@@H](C)O [SEQ ID NO: 170] (Ac-IHPTIPADLWDWINK-NH2)	< 10
CC[C@H](C)[C@H](NC(C)=O)C(=O)N[C@@H](Cc1c[nH]cn1)C(=O)N[C@H](C(=O)N[C@H](C(=O)N1CCC[C@H]1C(=O)N1CCC[C@H]1C(=O)N[C@@H](C)C(=O)N[C@@H](CC(=O)O)C(=O)N[C@@H](CC(C)C)C(=O)N[C@@H](Cc1c[nH]c2ccccc12)C(=O)N[C@@H](CC(=O)O)C(=O)N[C@@H](Cc1c[nH]c2ccccc12)C(=O)N[C@H](C(=O)N[C@@H](CC(N)=O)C(=O)N[C@@H](CCCCN)C(N)=O)[C@@H](C)CC)[C@@H](C)O)C(C)C [SEQ ID NO: 182] (Ac-IHVTPPADLWDWINK-NH2)	< 10
CC(=O)N[C@H](C(=O)N[C@@H](Cc1c[nH]cn1)C(=O)N[C@@H](Cc1ccccc1)C(=O)N[C@@H](CCC(N)=O)C(=O)N[C@@H](Cc1ccccc1)C(=O)N1CCC[C@H]1C(=O)N[C@@H](C)C(=O)N[C@@H](CC(=O)O)C(=O)N[C@@H](Cc1ccccc1)C(=O)N[C@@H](Cc1c[nH]c2ccccc12)C(=O)N[C@@H](CCC(=O)O)C(=O)N[C@@H](Cc1c[nH]c2ccccc12)C(=O)N[C@H](C(=O)N[C@@H](CCCNC(=N)N)C(=O)N[C@@H](CCCNC(=N)N)C(N)=O)C(C)C)C(C)C [SEQ ID NO: 131] (Ac-VHFQFPADFWEWVRR-NH2)	< 0.5
CC[C@H](C)[C@H](NC(C)=O)C(=O)N[C@@H](Cc1c[nH]cn1)C(=O)N[C@H](C(=O)N[C@@H](CO)C(=O)N[C@H](C(=O)N1CCC[C@H]1C(=O)N[C@@H](C)C(=O)N[C@@H](CC(=O)O)C(=O)N[C@@H](CC(C)C)C(=O)N[C@@H](Cc1c[nH]c2ccccc12)C(=O)N[C@@H](CC(=O)O)C(=O)N[C@@H](Cc1c[nH]c2ccccc12)C(=O)N[C@H](C(=O)N[C@@H](CC(N)=O)C(=O)N[C@@H](CCCCN)C(N)=O)[C@@H](C)CC)[C@@H](C)CC)C(C)C [SEQ ID NO: 175] (Ac-IHVSIPADLWDWINK-NH2)	< 10
